Results published in patent US20240109917A1 (ACTELION PHARMACEUTICALS LTD, priority 2020, published 2024).

What was measured:
[1] = biological target: Tb-labeled inactive PDGFRβ (Homo sapiens (Human), UniProt P09619); test: PDGFRβ LanthaScreen Assay; format: binding; details: read-out: PDGFR Lantha IC50
PDGFRβ = PDGFRβ (Rattus norvegicus (Rat), UniProt Q05030); test: PDGFRβ Cellular Assay (PDGFRb P-Y751 HTRF in A10 cells stimulated with PDGF-BB); format: cell-based; details: read-out: PDGFR Cellular IC50
PDGFRβ, sequence (Q05030 32-1097): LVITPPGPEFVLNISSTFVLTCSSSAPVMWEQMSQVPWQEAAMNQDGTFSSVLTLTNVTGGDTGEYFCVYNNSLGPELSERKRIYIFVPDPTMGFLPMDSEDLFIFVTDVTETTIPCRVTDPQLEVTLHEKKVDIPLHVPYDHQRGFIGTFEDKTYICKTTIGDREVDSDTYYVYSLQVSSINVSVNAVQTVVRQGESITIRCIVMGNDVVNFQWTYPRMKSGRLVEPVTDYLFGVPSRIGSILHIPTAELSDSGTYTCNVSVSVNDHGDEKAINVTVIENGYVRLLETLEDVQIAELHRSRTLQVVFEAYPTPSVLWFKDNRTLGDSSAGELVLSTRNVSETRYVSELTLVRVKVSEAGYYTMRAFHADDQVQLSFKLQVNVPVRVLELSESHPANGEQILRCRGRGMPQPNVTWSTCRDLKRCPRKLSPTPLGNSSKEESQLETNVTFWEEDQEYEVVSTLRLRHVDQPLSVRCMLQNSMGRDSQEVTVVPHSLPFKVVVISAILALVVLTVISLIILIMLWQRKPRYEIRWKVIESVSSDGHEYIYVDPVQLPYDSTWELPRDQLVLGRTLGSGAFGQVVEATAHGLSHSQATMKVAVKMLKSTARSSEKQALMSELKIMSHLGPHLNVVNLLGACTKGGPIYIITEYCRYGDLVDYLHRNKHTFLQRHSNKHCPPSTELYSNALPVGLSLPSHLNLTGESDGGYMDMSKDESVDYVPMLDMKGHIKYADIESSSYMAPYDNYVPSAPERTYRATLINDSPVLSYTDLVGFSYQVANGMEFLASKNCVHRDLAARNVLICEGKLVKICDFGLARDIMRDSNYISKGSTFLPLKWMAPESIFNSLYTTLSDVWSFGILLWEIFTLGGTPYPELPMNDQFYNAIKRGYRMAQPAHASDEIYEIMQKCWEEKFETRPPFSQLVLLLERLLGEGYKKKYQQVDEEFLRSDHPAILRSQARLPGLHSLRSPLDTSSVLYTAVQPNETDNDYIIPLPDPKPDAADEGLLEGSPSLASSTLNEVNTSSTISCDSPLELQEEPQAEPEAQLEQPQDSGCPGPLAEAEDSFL
Experimental: II. Methods and Procedures
Cell Culture and Preparation: Cells are cultured according to ATCC procedure (5) with the addition of the antibiotic penicillin-streptomycin. If working from frozen, cells should be thawed according to ATCC procedure. Depending on the cell density of frozen vial, cells will need time to recover from thaw. An 80% confluent T75 flask should be enough for one 384 well plate.
Stock Solutions: Rat PDGFBB. A 100 ug/mL stock is prepared by reconstituting 50 ug in 500 uL of 4 mM HCl and 0.1% BSA. It can be stored for a month at 4° C., or aliquoted out and frozen in the −20/−80° C. to avoid multiple free-thaw cycles.
Freshly Prepared Solutions:
1× Cisbio cell lysis buffer. The cell lysis buffer is diluted 4-fold with molecular grade water. The blocking agent is then diluted 25-fold in the diluted lysis buffer.
Antibody solutions. Equal amounts d2 and cryptate antibody are diluted 20-fold in detection buffer.
Rat PDGFBB. A working stock of 100 ng/mL is created from the stock solution in 10% FBS culture media.
Step 1: Plating Cells: Media from the A10 cell flask is aspirated. The cells are rinsed with PBS and then trypsinized to disperse the cell layer. The cells are then pelleted are resuspended to 1.25e5 cells/mL. […] Plates are covered and placed in the incubator (37° C. 5% CO2) overnight to allow cells to adhere.
Step 2: Compound Dispense: Approximately 18 hours after plating, dispense 40 nL compound onto cells using Echo. Column 12 is the neutral control DMSO, column 24 is the inhibitor control 10 mM Imatinib (10 uM final assay concentration). The plate is returned to the incubator for 3 hours.
After 10 minutes the media is removed by flicking the plate.
Step 4: Cell lysis and antibody addition: 20 uL lysis buffer per well is added to the plate via Tempest. 5 uL antibody solution is added per well via the Tempest. The plate is placed on the shaker at 230 rpm for 1 hour at room temperature.
Step 5: Detection: The plate is read using the HTRF module on the BMG Pherastar. Data is analyzed using Genedata Screener.
III. Calculations and Formulas
% Inhibition: % Inhibition=(NC−sample)/(NC−PC)*100 where NC is the mean of negative control (reactions without inhibitor), and PC is the mean of positive control (10 μM imatinib).
IC50 values are determined from a 4-parameter fit, using the following equation: Y=Bottom+(Top−Bottom)/(1+10((Log IC50−X)*Hill slope)), where X=log10 of the compound concentration; top can be defined by PC; bottom defined by NC.

VEGFR2, unphosphorylated = VEGFR2, unphosphorylated (Homo sapiens (Human), UniProt P35968); test: VEGFR ADP GLO Assay; format: biochemical
VEGFR2, unphosphorylated, sequence (P35968 20-1356): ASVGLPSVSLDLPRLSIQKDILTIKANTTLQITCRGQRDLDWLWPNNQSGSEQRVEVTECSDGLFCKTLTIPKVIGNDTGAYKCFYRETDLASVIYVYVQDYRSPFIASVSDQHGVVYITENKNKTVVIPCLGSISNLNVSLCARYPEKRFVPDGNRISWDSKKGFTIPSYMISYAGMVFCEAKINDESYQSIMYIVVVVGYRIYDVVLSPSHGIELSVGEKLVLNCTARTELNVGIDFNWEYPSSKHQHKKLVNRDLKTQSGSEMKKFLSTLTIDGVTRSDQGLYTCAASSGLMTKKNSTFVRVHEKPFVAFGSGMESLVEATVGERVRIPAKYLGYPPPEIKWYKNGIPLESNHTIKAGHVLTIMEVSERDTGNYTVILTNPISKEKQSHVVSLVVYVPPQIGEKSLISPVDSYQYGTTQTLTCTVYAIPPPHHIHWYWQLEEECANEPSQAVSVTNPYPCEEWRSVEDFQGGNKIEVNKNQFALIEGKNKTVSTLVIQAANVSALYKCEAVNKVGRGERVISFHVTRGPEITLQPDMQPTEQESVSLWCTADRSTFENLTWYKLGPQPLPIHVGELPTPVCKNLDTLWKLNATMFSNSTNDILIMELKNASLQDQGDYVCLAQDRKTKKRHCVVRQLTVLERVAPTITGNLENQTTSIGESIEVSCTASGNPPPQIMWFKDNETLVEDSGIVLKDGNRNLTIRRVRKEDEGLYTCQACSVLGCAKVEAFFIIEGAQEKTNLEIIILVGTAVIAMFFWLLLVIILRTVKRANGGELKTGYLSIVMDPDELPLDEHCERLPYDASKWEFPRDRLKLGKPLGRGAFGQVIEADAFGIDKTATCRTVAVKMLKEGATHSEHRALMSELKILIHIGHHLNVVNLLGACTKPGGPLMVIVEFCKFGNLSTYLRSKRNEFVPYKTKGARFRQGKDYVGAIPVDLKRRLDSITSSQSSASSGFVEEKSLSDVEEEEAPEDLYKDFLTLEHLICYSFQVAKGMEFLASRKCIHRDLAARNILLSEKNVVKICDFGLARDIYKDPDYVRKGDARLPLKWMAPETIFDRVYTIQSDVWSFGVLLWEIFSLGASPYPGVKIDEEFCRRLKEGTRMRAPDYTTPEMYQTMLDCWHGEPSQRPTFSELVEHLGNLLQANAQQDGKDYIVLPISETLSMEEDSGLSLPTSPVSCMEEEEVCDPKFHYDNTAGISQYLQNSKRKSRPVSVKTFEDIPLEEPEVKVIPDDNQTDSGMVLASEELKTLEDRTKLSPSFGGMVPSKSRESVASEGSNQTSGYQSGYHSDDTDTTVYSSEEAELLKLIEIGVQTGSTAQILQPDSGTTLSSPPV

Tb-labeled inactive PDGFRβ, sequence (P09619 33-1106): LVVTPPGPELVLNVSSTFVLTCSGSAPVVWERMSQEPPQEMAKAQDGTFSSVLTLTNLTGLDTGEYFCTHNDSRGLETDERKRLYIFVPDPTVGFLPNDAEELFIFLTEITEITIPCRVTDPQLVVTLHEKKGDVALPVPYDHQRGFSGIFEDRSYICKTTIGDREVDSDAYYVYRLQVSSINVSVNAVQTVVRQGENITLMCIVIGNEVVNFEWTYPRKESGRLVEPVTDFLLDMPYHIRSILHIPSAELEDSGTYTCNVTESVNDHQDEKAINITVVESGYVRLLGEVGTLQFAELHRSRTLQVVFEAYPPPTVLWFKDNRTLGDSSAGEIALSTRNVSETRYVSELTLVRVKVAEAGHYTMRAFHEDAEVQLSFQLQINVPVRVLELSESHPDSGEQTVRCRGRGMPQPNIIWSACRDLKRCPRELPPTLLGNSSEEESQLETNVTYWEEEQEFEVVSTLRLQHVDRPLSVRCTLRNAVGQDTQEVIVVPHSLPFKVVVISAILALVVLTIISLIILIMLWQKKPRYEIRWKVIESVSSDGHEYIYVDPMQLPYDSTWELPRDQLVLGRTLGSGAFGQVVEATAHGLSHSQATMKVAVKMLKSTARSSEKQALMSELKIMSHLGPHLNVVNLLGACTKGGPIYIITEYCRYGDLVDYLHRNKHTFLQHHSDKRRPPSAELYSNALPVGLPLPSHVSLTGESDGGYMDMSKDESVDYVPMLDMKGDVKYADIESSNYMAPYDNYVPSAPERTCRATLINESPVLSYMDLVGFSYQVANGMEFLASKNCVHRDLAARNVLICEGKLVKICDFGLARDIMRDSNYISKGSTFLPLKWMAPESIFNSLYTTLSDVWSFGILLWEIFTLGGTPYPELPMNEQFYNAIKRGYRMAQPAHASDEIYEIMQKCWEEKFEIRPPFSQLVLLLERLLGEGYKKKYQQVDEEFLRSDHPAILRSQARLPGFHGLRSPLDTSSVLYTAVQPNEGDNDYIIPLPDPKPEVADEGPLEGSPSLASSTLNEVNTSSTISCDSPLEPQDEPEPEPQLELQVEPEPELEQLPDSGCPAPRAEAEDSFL

Row | SMILES | IC50 [1] | IC50 (PDGFRβ) | IC50 (VEGFR2, unphosphorylated)
1 | Cc1ncc(C(=O)NCCN2C3CCCC2CCC3)cc1NC(=O)c1cnn2cc(-c3cnn(C)c3)sc12 [Example 4, N-(5-((2-(9-azabicyclo[3.3.1]nonan-9-yl)ethyl)carbamoyl)-2-methylpyridin-3-yl)-2-(1-methyl-1H-pyrazol-4-yl)pyrazolo[5,1-b]thiazole-7-carboxamide] | 2.3 nM | 11.7 nM | > 7500 nM
2 | Cc1ncc(C(=O)NCCN2CC3CC(C3)C2)cc1NC(=O)c1cnn2cc(-c3cnn(C)c3)sc12 [Example 5, N-(5-((2-(3-azabicyclo[3.1.1]heptan-3-yl)ethyl)carbamoyl)-2-methylpyridin-3-yl)-2-(1-methyl-1H-pyrazol-4-yl)pyrazolo[5,1-b]thiazole-7-carboxamide] | 5.8 nM | 26.2 nM | > 7500 nM
3 | Cc1ncc(C(=O)NCCN2CCCC2(C)C)cc1NC(=O)c1cnn2cc(-c3cnn(C4CC4)c3)sc12 [Example 6, 2-(1-cyclopropyl-1H-pyrazol-4-yl)-N-(5-((2-(2,2-dimethylpyrrolidin-1-yl)ethyl)carbamoyl)-2-methylpyridin-3-yl)pyrazolo[5,1-b]thiazole-7-carboxamide] | 4.7 nM | 7.7 nM | > 7500 nM
4 | Cc1ncc(C(=O)NCCN2CCCC2(C)C)cc1NC(=O)c1cnn2cc(-c3ccncc3)sc12 [Example 7, N-(5-((2-(2,2-dimethylpyrrolidin-1-yl)ethyl)carbamoyl)-2-methyl-pyridin-3-yl)-2-(pyridin-4-yl)pyrazolo[5,1-b]thiazole-7-carboxamide] | 8.3 nM | 15.8 nM | > 7500 nM
5 | Cc1ncc(C(=O)NCCN2CCCC2(C)C)cc1NC(=O)c1cnn2cc(-c3cnn(C)c3)sc12 [Example 8, N-(5-((2-(2,2-dimethylpyrrolidin-1-yl)ethyl)carbamoyl)-2-methylpyridin-3-yl)-2-(1-methyl-1H-pyrazol-4-yl)pyrazolo[5,1-b]thiazole-7-carboxamide] | 4.7 nM | 43.6 nM | > 10000 nM
6 | Cc1ncc(C(=O)NCCN2CCCC2(C)C)cc1NC(=O)c1cnn2cc(-c3ccn(C)n3)sc12 [Example 9, N-(5-((2-(2,2-dimethylpyrrolidin-1-yl)ethyl)carbamoyl)-2-methylpyridin-3-yl)-2-(1-methyl-1H-pyrazol-3-yl)pyrazolo[5,1-b]thiazole-7-carboxamide] | 3.5 nM | 16.8 nM | > 7500 nM
7 | Cc1ncc(NC(=O)CCN2CCCC2(C)C)cc1NC(=O)c1cnn2cc(-c3cnn(C)c3)sc12 [Example 10, N-(5-(3-(2,2-dimethylpyrrolidin-1-yl)propanamido)-2-methyl-pyridin-3-yl)-2-(1-methyl-1H-pyrazol-4-yl)pyrazolo[5,1-b]thiazole-7-carboxamide] | 2.8 nM | 5.2 nM | > 7500 nM
8 | Cc1ncc(NC(=O)CCN2CCCC2(C)C)cc1NC(=O)c1cnn2cc(-c3ccnn3C)sc12 [Example 11, N-(5-(3-(2,2-dimethylpyrrolidin-1-yl)propanamido)-2-methyl-pyridin-3-yl)-2-(1-methyl-1H-pyrazol-5-yl)pyrazolo[5,1-b]thiazole-7-carboxamide] | 5 nM | 10.6 nM | > 7500 nM
9 | COCCn1cc(-c2cn3ncc(C(=O)Nc4cc(NC(=O)CCN5CCC56CCC6)cnc4C)c3s2)cn1 [Example 95, N-(5-(3-(1-azaspiro[3.3]heptan-1-yl)propanamido)-2-methylpyridin-3-yl)-2-(1-(2-methoxyethyl)-1H-pyrazol-4-yl)pyrazolo[5,1-b]thiazole-7-carboxamide] | 5.1 nM | 17.9 nM | > 7500 nM
10 | Cc1ncc(NC(=O)CCN2CC(C)(C)C2)cc1NC(=O)c1cnn2cc(-c3cnn(C)c3)sc12 [Example 96, N-(5-(3-(3,3-dimethylazetidin-1-yl)propanamido)-2-methylpyridin-3-yl)-2-(1-methyl-1H-pyrazol-4-yl)pyrazolo[5,1-b]thiazole-7-carboxamide] | 28.4 nM | 17 nM | > 7500 nM
11 | Cc1ncc(NC(=O)CCN2CCC3(CC2)CC3)cc1NC(=O)c1cnn2cc(-c3cnn(C)c3)sc12 [Example 97, N-(5-(3-(6-azaspiro[2.5]octan-6-yl)propanamido)-2-methylpyridin-3-yl)-2-(1-methyl-1H-pyrazol-4-yl)pyrazolo[5,1-b]thiazole-7-carboxamide] | 6.4 nM | 8.4 nM | > 7500 nM
12 | Cc1ncc(NC(=O)CCN2CCCC23CC3)cc1NC(=O)c1cnn2cc(-c3cnn(C)c3)sc12 [Example 98] | 2.9 nM | 4.7 nM | > 7500 nM
13 | COCCn1cc(-c2cn3ncc(C(=O)Nc4cc(NC(=O)CCN5CC6CCC5CC6)cnc4C)c3s2)cn1 [Example 100, N-(5-(3-(2-azabicyclo[2.2.2]octan-2-yl)propanamido)-2-methylpyridin-3-yl)-2-(1-(2-methoxyethyl)-1H-pyrazol-4-yl)pyrazolo[5,1-b]thiazole-7-carboxamide] | 7.5 nM | 33.4 nM | > 7500 nM
14 | COCCn1nc(C)c(-c2cn3ncc(C(=O)Nc4cc(NC(=O)CCN5CC6CCC(C5)O6)cnc4C)c3s2)c1C [Example 102, N-(5-(3-(8-oxa-3-azabicyclo[3.2.1]octan-3-yl)propanamido)-2-methylpyridin-3-yl)-2-(1-(2-methoxyethyl)-3,5-dimethyl-1H-pyrazol-4-yl)pyrazolo[5,1-b]thiazole-7-carboxamide] | 1 nM | 21.8 nM | > 7500 nM
15 | COCCn1nc(C)c(-c2cn3ncc(C(=O)Nc4cc(NC(=O)CCN5CCC6(CC6)C5)cnc4C)c3s2)c1C [Example 103, N-(5-(3-(5-azaspiro[2.4]heptan-5-yl)propanamido)-2-methylpyridin-3-yl)-2-(1-(2-methoxyethyl)-3,5-dimethyl-1H-pyrazol-4-yl)pyrazolo[5,1-b]thiazole-7-carboxamide] | 8.6 nM | 38.8 nM | > 7500 nM
16 | Cc1ncc(NC(=O)CCN2CCC3(CC3)C2)cc1NC(=O)c1cnn2cc(-c3cnn(C)c3)sc12 [Example 104, N-(5-(3-(5-azaspiro[2.4]heptan-5-yl)propanamido)-2-methylpyridin-3-yl)-2-(1-methyl-1H-pyrazol-4-yl)pyrazolo[5,1-b]thiazole-7-carboxamide] | 9.8 nM | 9.2 nM | > 7500 nM
17 | Cc1ncc(NC(=O)CCCN2CCC[C@@H]2C)cc1NC(=O)c1cnn2cc(-c3cnn(C)c3)sc12 [Example 106, (S)-2-(1-methyl-1H-pyrazol-4-yl)-N-(2-methyl-5-(4-(2-methylpyrrolidin-1-yl)butanamido)pyridin-3-yl)pyrazolo[5,1-b]thiazole-7-carboxamide] | 67 nM | 461 nM | > 7500 nM
18 | Cc1ncc(NC(=O)NCC2CCN(C)CC2)cc1NC(=O)c1cnn2cc(-c3cnn(C)c3)sc12 [Example 107, 2-(1-methyl-1H-pyrazol-4-yl)-N-(2-methyl-5-(3-((1-methylpiperidin-4-yl)methyl)ureido)pyridin-3-yl)pyrazolo[5,1-b]thiazole-7-carboxamide] | 582 nM | > 3000 nM | > 7500 nM
